This passage reports IC50 results from patent publication US8541588B2, “Sulfonamide derivatives” (Pfizer Limited, priority 2009, dated 2013).

Each structure is given as a SMILES string.

T1 sequence (Q15858 whole entry): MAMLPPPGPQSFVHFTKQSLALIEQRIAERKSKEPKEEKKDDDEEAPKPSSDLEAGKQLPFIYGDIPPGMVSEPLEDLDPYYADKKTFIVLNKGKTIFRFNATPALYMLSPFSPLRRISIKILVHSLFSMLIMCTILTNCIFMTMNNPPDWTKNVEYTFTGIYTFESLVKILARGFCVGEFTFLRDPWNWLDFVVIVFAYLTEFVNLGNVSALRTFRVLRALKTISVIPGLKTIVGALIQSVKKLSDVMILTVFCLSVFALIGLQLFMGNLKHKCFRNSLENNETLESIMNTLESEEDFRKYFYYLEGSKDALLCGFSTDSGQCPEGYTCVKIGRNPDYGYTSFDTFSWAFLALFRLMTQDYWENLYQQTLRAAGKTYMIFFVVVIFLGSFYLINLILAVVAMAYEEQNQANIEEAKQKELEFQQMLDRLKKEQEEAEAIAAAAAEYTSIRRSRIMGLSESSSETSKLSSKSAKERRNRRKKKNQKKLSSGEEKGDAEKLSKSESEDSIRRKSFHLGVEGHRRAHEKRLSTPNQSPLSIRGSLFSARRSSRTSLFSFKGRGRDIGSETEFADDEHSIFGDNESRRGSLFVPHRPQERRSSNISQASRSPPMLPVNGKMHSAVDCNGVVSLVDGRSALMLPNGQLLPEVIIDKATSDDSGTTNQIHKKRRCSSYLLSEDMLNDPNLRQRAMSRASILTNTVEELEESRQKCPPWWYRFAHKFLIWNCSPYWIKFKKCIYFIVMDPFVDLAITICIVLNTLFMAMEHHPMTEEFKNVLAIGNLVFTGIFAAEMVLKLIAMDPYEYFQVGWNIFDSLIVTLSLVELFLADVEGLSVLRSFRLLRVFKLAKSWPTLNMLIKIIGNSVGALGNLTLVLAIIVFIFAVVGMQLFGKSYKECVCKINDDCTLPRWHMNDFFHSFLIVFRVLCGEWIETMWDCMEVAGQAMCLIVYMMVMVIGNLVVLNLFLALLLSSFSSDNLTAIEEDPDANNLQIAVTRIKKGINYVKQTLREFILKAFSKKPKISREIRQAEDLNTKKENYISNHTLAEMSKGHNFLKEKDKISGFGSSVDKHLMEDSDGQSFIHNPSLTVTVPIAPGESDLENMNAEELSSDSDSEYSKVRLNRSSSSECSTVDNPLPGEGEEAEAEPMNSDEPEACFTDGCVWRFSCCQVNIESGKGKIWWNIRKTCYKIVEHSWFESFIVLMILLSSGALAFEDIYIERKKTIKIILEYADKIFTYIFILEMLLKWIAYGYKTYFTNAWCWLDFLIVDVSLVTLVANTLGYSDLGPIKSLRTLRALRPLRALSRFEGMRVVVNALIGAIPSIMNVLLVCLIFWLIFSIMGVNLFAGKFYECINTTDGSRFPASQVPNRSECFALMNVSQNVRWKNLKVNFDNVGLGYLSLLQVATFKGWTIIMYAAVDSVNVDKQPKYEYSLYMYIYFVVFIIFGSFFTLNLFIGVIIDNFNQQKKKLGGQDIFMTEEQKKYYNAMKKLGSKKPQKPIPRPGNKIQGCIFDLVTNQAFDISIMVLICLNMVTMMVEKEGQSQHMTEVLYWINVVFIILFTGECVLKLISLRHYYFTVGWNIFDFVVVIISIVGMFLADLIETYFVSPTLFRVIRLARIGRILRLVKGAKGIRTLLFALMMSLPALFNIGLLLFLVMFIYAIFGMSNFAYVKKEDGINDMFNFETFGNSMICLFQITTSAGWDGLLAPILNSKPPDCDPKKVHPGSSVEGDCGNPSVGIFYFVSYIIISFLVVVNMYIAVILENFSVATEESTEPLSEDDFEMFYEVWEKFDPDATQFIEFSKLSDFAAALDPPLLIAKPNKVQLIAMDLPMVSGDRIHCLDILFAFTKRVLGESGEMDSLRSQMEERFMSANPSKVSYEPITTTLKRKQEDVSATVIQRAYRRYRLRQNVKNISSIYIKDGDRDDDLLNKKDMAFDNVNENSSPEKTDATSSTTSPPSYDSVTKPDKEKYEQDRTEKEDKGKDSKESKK

This test has as its target T1, Nav1.7 (or SCN9A) channel; HEK cells stably transfected with hSCN9A (Homo sapiens, UniProt Q15858).
T1 construct: expressed in transfected cells
Kind of test: Nav1.7 block, PatchXpress 7000 automated whole-cell voltage clamp, estimated IC50 (EIC50). It is filed as cell-based. The following applies: estimated IC50; hSCN9A HEK cells, PatchXpress platform; Examples 815-1040.
As to `N#Cc1cc(S(=O)(=O)Nc2ncns2)ccc1Oc1ccc(Cl)cc1C1CNC1` [Example 906, 4-(2-azetidin-3-yl-4-chlorophenoxy)-3-cyano-N-1,2,4-thiadiazol-5-ylbenzenesulfonamide], the IC50 is 57 nM. To `Cc1nonc1NS(=O)(=O)c1ccc(Oc2ccc(Cl)cc2-c2ccnn2C)c(C#N)c1` [Example 907, 4-[4-chloro-2-(1-methyl-1H-pyrazol-5-yl)phenoxy]-3-cyano-N-(4-methyl-1,2,5-oxadiazol-3-yl)benzenesulfonamide] belongs above 10000 nM. Under `Cn1cc(-c2cc(Cl)ccc2Oc2ccc(S(=O)(=O)Nc3ncns3)cc2C#N)ccc1=O` [Example 908, 4-[4-chloro-2-(1-methyl-6-oxo-1,6-dihydropyridin-3-yl)phenoxy]-3-cyano-N-1,2,4-thiadiazol-5-ylbenzenesulfonamide] stands 780 nM; under `O=S(=O)(Nc1ncns1)c1cc(Cl)c(Oc2ccc(OC(F)(F)F)cc2-c2ccnnc2)cc1F` [Example 909, 5-chloro-2-fluoro-4-[2-pyridazin-4-yl-4-(trifluoromethoxy)phenoxy]-N-1,2,4-thiadiazol-5-ylbenzenesulfonamide], 2.1 nM; under `O=S(=O)(Nc1ncns1)c1cc(Cl)c(Oc2ccc(Cl)cc2-c2ccnnc2)cc1F` [Example 910, 5-chloro-4-(4-chloro-2-pyridazin-4-ylphenoxy)-2-fluoro-N-1,2,4-thiadiazol-5-ylbenzenesulfonamide], 12 nM. To `O=S(=O)(Nc1cscn1)c1ccc(Oc2ccc(Cl)cc2-c2ccn[nH]2)c(Cl)c1` [Example 911, 3-chloro-4-[4-chloro-2-(1H-pyrazol-5-yl)phenoxy]-N-1,3-thiazol-4-ylbenzenesulfonamide] belongs 170 nM. Consider `Nc1[nH]ncc1-c1cc(Cl)ccc1Oc1ccc(S(=O)(=O)Nc2cscn2)cc1Cl` [Example 912, 4-[2-(5-amino-1H-pyrazol-4-yl)-4-chlorophenoxy]-3-chloro-N-1,3-thiazol-4-ylbenzenesulfonamide], for which the IC50 is 14 nM. To `Nc1[nH]ncc1-c1cc(Cl)ccc1Oc1ccc(S(=O)(=O)Nc2ncns2)cc1Cl` [Example 913, 4-[2-(5-amino-1H-pyrazol-4-yl)-4-chlorophenoxy]-3-chloro-N-1,2,4-thiadiazol-5-ylbenzenesulfonamide] belongs 0.9 nM; to `Cc1cnncc1-c1cc(Cl)ccc1Oc1ccc(S(=O)(=O)Nc2ncns2)cc1C#N` [Example 914, 4-[4-chloro-2-(5-methylpyridazin-4-yl)phenoxy]-3-cyano-N-1,2,4-thiadiazol-5-ylbenzenesulfonamide], 180 nM. Under `Cn1nccc1-c1cc(Cl)ccc1Oc1ccc(S(=O)(=O)Nc2cccnn2)cc1C#N` [Example 915, 4-[4-chloro-2-(1-methyl-1H-pyrazol-5-yl)phenoxy]-3-cyano-N-pyridazin-3-ylbenzenesulfonamide] stands 1600 nM; under `COc1nccnc1NS(=O)(=O)c1ccc(Oc2ccc(Cl)cc2-c2ccnn2C)c(C#N)c1` [Example 916, 4-[4-chloro-2-(1-methyl-1H-pyrazol-5-yl)phenoxy]-3-cyano-N-(3-methoxypyrazin-2-yl)benzenesulfonamide], above 10000 nM; under `O=S(=O)(Nc1nncs1)c1cc(F)c(Oc2ccc(C(F)(F)F)cc2-c2ccnnc2)cc1F` [Example 917, 2,5-difluoro-4-[2-pyridazin-4-yl-4-(trifluoromethyl)phenoxy]-N-1,3,4-thiadiazol-2-ylbenzenesulfonamide], 240 nM. To `Nc1cc(-c2cc(Cl)ccc2Oc2cc(F)c(S(=O)(=O)Nc3cnccn3)cc2Cl)ccn1` [Example 918, 4-[2-(2-aminopyridin-4-yl)-4-chlorophenoxy]-5-chloro-2-fluoro-N-pyrazin-2-ylbenzenesulfonamide] belongs 140 nM; to `N#Cc1cc(S(=O)(=O)Nc2nncs2)ccc1Oc1ccc(Cl)cc1-c1ccnc(N2CCC2)c1` [Example 919, 4-[2-(2-azetidin-1-ylpyridin-4-yl)-4-chlorophenoxy]-3-cyano-N-1,3,4-thiadiazol-2-ylbenzenesulfonamide], 24 nM.
